Data taken from US5284999A, “DNA encoding a pituitary-specific thyroid hormone receptor” (Brigham and Women's Hospital, priority 1993, dated 1994).

System: r-ErbAβ-2 protein (PSTHR, pituitary-specific thyroid hormone receptor)
Experiment: Competition experiments with thyroid hormone analogs on r-ErbAβ-2 protein
Format: binding, rat

## O=C(O)Cc1cc(I)c(Oc2ccc(O)c(I)c2)c(I)c1 [triac, 3,5,3'-triiodothyrocetic acid]
  affinity of the r-ErbAβ-2 protein (rank order among analogs): greatest
